Experimental data taken from patent US6737383B1, “Herbicidal oxadiazolidines” (priority 1999, dated 2004).

Legend:
[1] = system: bedstraw; assay: Test B pre/postemergence bedstraw; type: in vivo, Galium aparine
In short: (§1)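 Test chemicals in a non-phytotoxic solvent mixture with surfactant were sprayed preemergence onto planted seeds and postemergence onto plants 2 to 18 cm tall (1- to 4-leaf stage). After twelve to sixteen days in a greenhouse, injury was visually rated against untreated controls from 0 (no effect) to 10 (complete control).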

[2] = system: velvetleaf; assay: Test B pre/postemergence velvetleaf; type: in vivo, Abutilon theophrasti
In short: as §1

[3] = system: blackgrass; assay: Test B pre/postemergence blackgrass; type: in vivo, Alopecurus myosuroides
In short: as §1

[4] = system: soybean; assay: Test B pre/postemergence soybean; type: in vivo, Glycine max
In short: as §1

[5] = Preemergence, Rate 62 g/ha, scale of 0 to 10 where 0 is no effect and 10 is complete control
[6] = Preemergence, Rate 250 g/ha, scale of 0 to 10 where 0 is no effect and 10 is complete control
[7] = Preemergence, Rate 500 g/ha, scale of 0 to 10 where 0 is no effect and 10 is complete control
[8] = Rate 62 g/ha, Postemergence, scale of 0 to 10 where 0 is no effect and 10 is complete control
[9] = Rate 125 g/ha, Postemergence, scale 0 to 10
[10] = Rate 125 g/ha, Preemergence, scale of 0 to 10 where 0 is no effect and 10 is complete control
[11] = Rate 500 g/ha, Postemergence, scale 0 to 10
[12] = Postemergence, Rate 62 g/ha, scale of 0 to 10, 0 is no effect, 10 is complete control
[13] = Preemergence, Rate 62 g/ha, scale 0 to 10 (0 no effect, 10 complete control)
[14] = Preemergence, Rate 125 g/ha, scale 0 to 10, 0 is no effect, 10 is complete control
[15] = Postemergence, Rate 500 g/ha, scale of 0 to 10 where 0 is no effect and 10 is complete control
[16] = Rate 250 g/ha, Postemergence, scale of 0 to 10 where 0 is no effect and 10 is complete control
[17] = Postemergence, Rate 125 g/ha, scale 0 to 10, 0 is no effect, 10 is complete control
[18] = Postemergence, Rate 62 g/ha, scale 0 to 10, 0 is no effect, 10 is complete control
[19] = Postemergence, Rate 250 g/ha, scale 0 to 10, 0 no effect, 10 complete control
[20] = Preemergence, Rate 125 g/ha, scale 0 to 10 (0 no effect, 10 complete control)
[21] = Preemergence, Rate 500 g/ha, scale 0 (no effect) to 10 (complete control)
[22] = Rate 125 g/ha, Postemergence, scale 0 to 10, 0 no effect, 10 complete control
[23] = Rate 500 g/ha, Postemergence, scale 0 to 10, 0 no effect, 10 complete control
[24] = Preemergence, Rate 31 g/ha, visual rating, scale 0 to 10 (0 no effect, 10 complete control)
[25] = Preemergence, Rate 250 g/ha, scale 0 to 10, 0 is no effect, 10 is complete control
[26] = Rate 31 g/ha, Postemergence, scale 0 to 10
[27] = Preemergence, Rate 125 g/ha, 0 is no effect, 10 is complete control
[28] = Postemergence, Rate 250 g/ha, scale 0 to 10, 0 is no effect, 10 is complete control

CC(C)N(C(=O)n1oc(=O)n(CC(=O)C(C)(C)C)c1=O)c1ccc(F)cc1 [Compound 216]
Bedstraw plant response rating [1, 5]: 0 | Bedstraw plant response rating [1, 6]: 0 | Plant response rating, Bedstraw [1, 7]: 0 | Bedstraw plant response rating [1, 8]: 0 | Bedstraw plant response rating [1, 9]: 0 | Bedstraw plant response rating [1, 10]: 0 | Plant response rating (0 to 10; 0 is no effect, 10 is complete control), Bedstraw ([1]; Rate 250 g/ha, Postemergence): 2 | Velvetleaf plant response rating [2, 5]: 0 | Velvetleaf plant response rating [2, 6]: 0 | Plant response rating, Velvetleaf [2, 7]: 0 | Velvetleaf plant response rating [2, 8]: 0 | Velvetleaf plant response rating [2, 9]: 0 | Velvetleaf plant response rating [2, 10]: 0 | Plant response rating (0 to 10; 0 is no effect, 10 is complete control), Velvetleaf ([2]; Rate 250 g/ha, Postemergence): 0 | Blackgrass plant response rating [3, 5]: 0 | Blackgrass plant response rating [3, 6]: 4 | Plant response rating, Blackgrass [3, 7]: 4 | Blackgrass plant response rating [3, 8]: 0 | Blackgrass plant response rating [3, 9]: 4 | Blackgrass plant response rating [3, 10]: 2 | Plant response rating (0 to 10; 0 is no effect, 10 is complete control), Blackgrass ([3]; Rate 250 g/ha, Postemergence): 8 | Blackgrass plant response rating [3, 11]: 8 | Soybean plant response rating [4, 5]: 0 | Soybean plant response rating [4, 6]: 0 | Plant response rating, Soybean [4, 7]: 0 | Soybean plant response rating [4, 8]: 1 | Soybean plant response rating [4, 9]: 1 | Soybean plant response rating [4, 10]: 0 | Plant response rating (0 to 10; 0 is no effect, 10 is complete control), Soybean ([4]; Rate 250 g/ha, Postemergence): 1 | Soybean plant response rating [4, 11]: 2

CC(C)N(C(=O)n1oc(=O)n(C(C)C(=O)c2ccccc2)c1=O)c1ccccc1 (stereo not shown) [Compound 570]
Bedstraw plant response rating [1, 12]: 0 | Bedstraw plant response rating [1, 13]: 0 | Bedstraw plant response rating [1, 14]: 0 | Bedstraw plant response rating (0 to 10 scale) ([1]; Preemergence, Rate 250 g/ha): 0 | Bedstraw plant response rating [1, 7]: 0 | Plant response rating, Velvetleaf [2, 15]: 0 | Velvetleaf plant response rating [2, 13]: 0 | Velvetleaf plant response rating [2, 14]: 0 | Velvetleaf plant response rating (0 to 10 scale) ([2]; Preemergence, Rate 250 g/ha): 0 | Velvetleaf plant response rating [2, 7]: 0 | Plant response rating, Velvetleaf [2, 16]: 0 | Blackgrass plant response rating [3, 12]: 0 | Blackgrass plant response rating [3, 17]: 0 | Plant response rating, Blackgrass [3, 15]: 0 | Blackgrass plant response rating [3, 13]: 0 | Blackgrass plant response rating [3, 14]: 0 | Blackgrass plant response rating (0 to 10 scale) ([3]; Preemergence, Rate 250 g/ha): 0 | Blackgrass plant response rating [3, 7]: 0 | Plant response rating, Blackgrass [3, 16]: 0 | Plant response rating, Soybean [4, 15]: 3 | Soybean plant response rating [4, 13]: 0 | Soybean plant response rating [4, 14]: 0 | Soybean plant response rating (0 to 10 scale) ([4]; Preemergence, Rate 250 g/ha): 0 | Soybean plant response rating [4, 7]: 0 | Plant response rating, Soybean [4, 16]: 3

Cc1cccc(C(C)C)c1-n1c(=O)on(C(=O)N(c2ccc(F)cc2)C(C)C)c1=O [Compound 65]
Bedstraw plant response rating [1, 18]: 0 | Bedstraw plant response rating [1, 19]: 0 | Bedstraw plant response rating [1, 13]: 0 | Plant response rating, Bedstraw [1, 20]: 0 | Plant response rating, Bedstraw [1, 6]: 2 | Bedstraw plant response rating [1, 21]: 3 | Bedstraw plant response rating [1, 22]: 0 | Bedstraw plant response rating [1, 23]: 0 | Velvetleaf plant response rating [2, 18]: 3 | Velvetleaf plant response rating [2, 19]: 3 | Velvetleaf plant response rating [2, 13]: 0 | Plant response rating, Velvetleaf [2, 20]: 0 | Plant response rating, Velvetleaf [2, 6]: 0 | Velvetleaf plant response rating [2, 21]: 0 | Velvetleaf plant response rating [2, 22]: 3 | Velvetleaf plant response rating [2, 23]: 4 | Blackgrass plant response rating [3, 18]: 0 | Blackgrass plant response rating [3, 19]: 0 | Blackgrass plant response rating [3, 13]: 0 | Plant response rating, Blackgrass [3, 20]: 0 | Plant response rating, Blackgrass [3, 6]: 0 | Blackgrass plant response rating [3, 21]: 0 | Blackgrass plant response rating [3, 22]: 0 | Blackgrass plant response rating [3, 23]: 0 | Soybean plant response rating [4, 18]: 1 | Soybean plant response rating [4, 19]: 1 | Soybean plant response rating [4, 13]: 0 | Plant response rating, Soybean [4, 20]: 0 | Plant response rating, Soybean [4, 6]: 0 | Soybean plant response rating [4, 21]: 0 | Soybean plant response rating [4, 22]: 1 | Soybean plant response rating [4, 23]: 1

CCOC(=O)C=CCn1c(=O)on(C(=O)N(c2ccc(F)cc2)C(C)C)c1=O [Compound 214]
Bedstraw plant response rating [1, 5]: 0 | Bedstraw plant response rating [1, 6]: 0 | Plant response rating, Bedstraw [1, 7]: 0 | Bedstraw plant response rating [1, 8]: 0 | Bedstraw plant response rating [1, 9]: 0 | Bedstraw plant response rating [1, 10]: 0 | Plant response rating (0 to 10; 0 is no effect, 10 is complete control), Bedstraw ([1]; Rate 250 g/ha, Postemergence): 2 | Bedstraw plant response rating [1, 11]: 8 | Velvetleaf plant response rating [2, 5]: 0 | Velvetleaf plant response rating [2, 6]: 0 | Plant response rating, Velvetleaf [2, 7]: 0 | Velvetleaf plant response rating [2, 8]: 0 | Velvetleaf plant response rating [2, 9]: 0 | Velvetleaf plant response rating [2, 10]: 0 | Plant response rating (0 to 10; 0 is no effect, 10 is complete control), Velvetleaf ([2]; Rate 250 g/ha, Postemergence): 0 | Blackgrass plant response rating [3, 5]: 0 | Blackgrass plant response rating [3, 6]: 3 | Plant response rating, Blackgrass [3, 7]: 3 | Blackgrass plant response rating [3, 8]: 1 | Blackgrass plant response rating [3, 9]: 4 | Plant response rating (0 to 10; 0 is no effect, 10 is complete control), Blackgrass ([3]; Rate 250 g/ha, Postemergence): 4 | Blackgrass plant response rating [3, 11]: 5 | Soybean plant response rating [4, 5]: 0 | Soybean plant response rating [4, 6]: 0 | Plant response rating, Soybean [4, 7]: 4 | Soybean plant response rating [4, 8]: 0 | Soybean plant response rating [4, 9]: 1 | Soybean plant response rating [4, 10]: 0 | Plant response rating (0 to 10; 0 is no effect, 10 is complete control), Soybean ([4]; Rate 250 g/ha, Postemergence): 3 | Soybean plant response rating [4, 11]: 3

Cc1ccccc1-n1c(=O)on(C(=O)N(c2ccc(F)cc2)C2CCC2)c1=O [Compound 200]
Bedstraw plant response rating [1, 24]: 0 | Bedstraw plant response rating [1, 25]: 0 | Bedstraw plant response rating [1, 26]: 0 | Bedstraw plant response rating [1, 8]: 0 | Bedstraw plant response rating [1, 9]: 0 | Plant response rating (0 to 10; 0 is no effect, 10 is complete control), Bedstraw ([1]; Rate 250 g/ha, Postemergence): 0 | Velvetleaf plant response rating [2, 24]: 0 | Velvetleaf plant response rating [2, 5]: 0 | Velvetleaf plant response rating [2, 25]: 0 | Velvetleaf plant response rating [2, 8]: 0 | Velvetleaf plant response rating [2, 9]: 0 | Plant response rating (0 to 10; 0 is no effect, 10 is complete control), Velvetleaf ([2]; Rate 250 g/ha, Postemergence): 1 | Blackgrass plant response rating [3, 24]: 0 | Blackgrass plant response rating [3, 5]: 0 | Blackgrass plant response rating (0 to 10 scale) [3, 27]: 5 | Blackgrass plant response rating [3, 25]: 7 | Blackgrass plant response rating [3, 26]: 0 | Blackgrass plant response rating [3, 8]: 0 | Blackgrass plant response rating [3, 9]: 0 | Plant response rating (0 to 10; 0 is no effect, 10 is complete control), Blackgrass ([3]; Rate 250 g/ha, Postemergence): 0 | Soybean plant response rating [4, 24]: 0 | Soybean plant response rating [4, 5]: 0 | Soybean plant response rating (0 to 10 scale) [4, 27]: 0 | Soybean plant response rating [4, 25]: 0 | Soybean plant response rating [4, 8]: 2 | Soybean plant response rating [4, 9]: 2 | Plant response rating (0 to 10; 0 is no effect, 10 is complete control), Soybean ([4]; Rate 250 g/ha, Postemergence): 2

CCOc1nc(C(F)(F)F)c(Cn2c(=O)on(C(=O)N(c3ccccc3)C(C)C)c2=O)s1 [Compound 379]
Plant response rating, Bedstraw [1, 17]: 0 | Plant response rating, Bedstraw [1, 28]: 0 | Plant response rating, Bedstraw [1, 13]: 0 | Bedstraw plant response rating (0 to 10 scale) ([1]; Preemergence, Rate 125 g/ha): 0 | Bedstraw plant response rating [1, 6]: 0 | Bedstraw plant response rating [1, 8]: 0 | Plant response rating, Bedstraw [1, 23]: 0 | Plant response rating, Velvetleaf [2, 17]: 0 | Plant response rating, Velvetleaf [2, 28]: 0 | Plant response rating, Velvetleaf [2, 13]: 0 | Velvetleaf plant response rating (0 to 10 scale) ([2]; Preemergence, Rate 125 g/ha): 0 | Velvetleaf plant response rating [2, 6]: 0 | Velvetleaf plant response rating [2, 7]: 0 | Velvetleaf plant response rating [2, 8]: 0 | Plant response rating, Velvetleaf [2, 23]: 0 | Plant response rating, Blackgrass [3, 17]: 0 | Plant response rating, Blackgrass [3, 28]: 0 | Plant response rating, Blackgrass [3, 13]: 0 | Blackgrass plant response rating (0 to 10 scale) ([3]; Preemergence, Rate 125 g/ha): 0 | Blackgrass plant response rating [3, 6]: 0 | Blackgrass plant response rating [3, 7]: 0 | Blackgrass plant response rating [3, 8]: 0 | Plant response rating, Blackgrass [3, 23]: 0 | Plant response rating, Soybean [4, 17]: 1 | Plant response rating, Soybean [4, 28]: 1 | Plant response rating, Soybean [4, 13]: 0 | Soybean plant response rating (0 to 10 scale) ([4]; Preemergence, Rate 125 g/ha): 0 | Soybean plant response rating [4, 6]: 0 | Soybean plant response rating [4, 7]: 0 | Soybean plant response rating [4, 8]: 1 | Plant response rating, Soybean [4, 23]: 2
